According to patent US8445440B2, “Dimeric IAP inhibitors” (Novartis AG, priority 2010, dated 2013):

Tests used:
SKOV3 tumor cells = assay: Cellular assay, SKOV3 tumor cell proliferation (Cell Titer Glo); format: cell-based; conditions: Homo sapiens, SK-OV-3, citrate salt form tested, 72 hour growth
Procedure: (§1) The compounds described herein above were profiled using a cellular assay (using SKOV3 or Panc3.27 tumor cells) and a binding assay to determine the competition between the compounds of the present invention and smac7 mer peptide for XIAP-BIR3 and cIAP1-BIR3 binding groove occupancy.
(§2) On day one adherent SKOV3 and Panc3.27 cells are plated into two 96-well, clear, flat bottom plates. All wells in row A contain 90 uL of media. All wells in rows B-G contain a total volume of 90 uL per well and 2000 cells per well for SKOV3 and 4000 cells per well for Panc3.27 cell lines. Plates are then incubated overnight for 18 hours at 37° C., 5% CO2.
(§3) On day two cells are treated with the compounds of formula M-L-M′. Treatments are done in triplicate. The compounds are first serially diluted in DMSO and then added to media giving a final concentration of 0.2% DMSO when added to cells. Cells are treated with 10 uL of serially diluted compounds of formula M-L-M′ at a final concentration of 1000 nM, 200 nM, 40 nM, 8 nM, 1.6 nM, 0.32 nM, 0.06 nM, 0.013 nM, 0.0026 nM, and one untreated well. Plate two is used as a time zero plate.
(§4) To measure cell viability 50 uL of Cell Titer Glo (CTG) solution is added to row A, media only and B, cells and media. CTG is purchased from Promega Corporation catalog number G7573. The solution is prepared according to manufacturer's instructions. CTG measures the amount of ATP released from viable cells that is proportional to the number of cells in each well. After incubating for ten minutes with CTG plates are measured on a luminescent reader at 700 nm wavelength. Read time is approximately one second per well for a 96-well plate.
(§5) On day five 50 uL of CTG is added to plate one, rows A-G, incubated for 10 minutes at room temperature and read on a luminescent reader. Raw data is adjusted to account for the time zero plate as well as background noise. Triplicate values are averaged and percent control growth is calculated. Percent control growth is calculated using the following logical test: If well read data point (a) is greater than time zero data point (t=0), then 100*[(a)−(t=0)]/[(72 hour total growth)−(t=0)], OR 100*[(a)−(t=0)]/[(t=0)]. Data is represented by line graph with the concentration of compound on the x axis and percent control growth on the y axis.

Panc3.27 tumor cells = assay: Cellular assay, Panc3.27 tumor cell proliferation (Cell Titer Glo); format: cell-based; conditions: citrate salt form tested, Panc3.27 cells, 72 hour growth, read-out: PANC proliferation IC50
Procedure: as §1, §2, §3, §4, §5

[1] = test system: SKOV3 or Panc3.27 tumor cells; assay: In vitro combination study, fixed concentration of IAP inhibitor with varied combination agent; format: cell-based; conditions: each agent alone
Procedure: as §2
On day two cells are treated with the compounds of formula M-L-M′. Treatments are done in triplicate. The compounds are first serially diluted in DMSO and then added to media giving a final concentration of 0.2% DMSO when added to cells. […]
To measure cell viability 50 uL of Cell Titer Glo (CTG) solution is added to row A, media only and B, cells and media. […] After incubating for ten minutes with CTG plates are measured on a luminescent reader at 700 nm wavelength. Read time is approximately one second per well for a 96-well plate.
as §5, with “Raw data is adjusted to account for the time zero plate as well as background noise.” left out, “Data is represented by line graph with the concentration of compound on the x axis and percent control growth on the y axis.” left out

cIAP1-BIR3 = cIAP1-BIR3 (Homo sapiens, UniProt Q13490); assay: Biacore SPR solution competition binding assay vs smac7 mer peptide, cIAP1-BIR3; conditions: citrate salt form tested; 6 nM cIAP1-BIR3; 25° C.; read-out: CIAP-BIR3 Binding Biacore (Competitive) EC50
Sequence of cIAP1-BIR3 (Q13490 260-352 limits assumed): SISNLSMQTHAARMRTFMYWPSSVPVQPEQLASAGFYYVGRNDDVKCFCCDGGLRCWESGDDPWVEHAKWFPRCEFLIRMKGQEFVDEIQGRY
From the text: as §1
(§6) The present method includes utility of a Surface plasmon resonance (SPR)-based biosensor (Biacore™ GE Healthcare, Uppsala, Sweden) to examine competition between the compounds of the present invention and smac7 mer peptide for XIAP-BIR3 and cIAP1-BIR3 binding groove occupancy.
(§7) Biacore™ utilizes the phenomenon of surface plasmon resonance (SPR) to detect and measure binding interactions. In a typical Biacore experiment, one of the interacting molecules is immobilized on a flexible dextran matrix while the interacting partner is flowed over the derivatized surface. A binding interaction results in an increase in mass on the sensor surface and a corresponding direct change in the refractive index of the medium in the vicinity of the sensor surface. Changes in refractive index or signal are recorded in resonance units (R.U.) Signal changes due to association and dissociation of complexes are monitored in a non-invasive manner, continuously and in real-time, the results of which are reported in the form of a sensorgram.
(§8) Biacore™ T100 (GE Healthcare, Uppsala, Sweden) was used to conduct all experiments reported herein. Sensor surface preparation and interaction analyses were performed at 25° C. Buffer and Biacore reagents were purchased from GE Healthcare. Running buffer containing 10 mM Hepes, pH7.4, 150 mM sodium chloride, 1.25 mM Dithiothreitol, 2% Dimethyl sulfoxide and 0.05% polysorbate 20 was utilized throughout all experiments.
(§9) Biotinylated smac7 mer peptide was diluted to 10 nM in running buffer and captured onto a sensor surface pre-derivatized with streptavidin (sensor chip SA) towards peptide surface densities in the range 40-100 R.U. Peptide captured surfaces were blocked with 500 μM PEO2-Biotin (Thermo Scientific).
(§10) Interaction analyses were performed by first equilibrating each compound within a six point seven fold compound dilution series in the range 1 μM to 0.06 nM with either 100 nM XIAP-BIR3 or 6 nM cIAP1-BIR3 for at least one hour during instrument start-up procedures. Protein compound mixtures were then injected over reference and smac7 mer peptide surfaces in series for 60 seconds at a flow-rate of 64 μL/minutes. Surface regeneration was performed at the end of each analysis cycle by a 30 second injection of 10 mM Glycine, pH 2.5, 1M Sodium Chloride, 0.05% polysorbate 20. Additionally, control compound samples and control XIAP-BIR3 or cIAP1-BIR3 samples were prepared and run at regular intervals to monitor surface and assay performance.
(§11) Data analyses were carried out using Biacore™ T100 evaluation software v2.0 to validate assay quality. Binding level report points were plotted versus logarithmic compound concentration values and analyzed in Graphpad prism 5 via non-linear regression using a one-site competition model. EC50 values were generated and used as a measure of inhibitor potency.

XIAP-BIR3 = XIAP-BIR3 (Homo sapiens, UniProt P98170); assay: Biacore SPR solution competition binding assay vs smac7 mer peptide, XIAP-BIR3; conditions: citrate salt form tested; 100 nM XIAP-BIR3; 25° C.; read-out: XIAP-BIR3 Binding Biacore (Competitive) EC50
Sequence of XIAP-BIR3 (P98170 241-356 limits assumed): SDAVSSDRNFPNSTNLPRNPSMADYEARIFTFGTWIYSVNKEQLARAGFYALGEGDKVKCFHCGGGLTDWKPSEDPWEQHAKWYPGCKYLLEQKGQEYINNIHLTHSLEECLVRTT
From the text: as §1, §6, §7, §8, §9, §10, §11

| Structure (SMILES) | IC50 (SKOV3 tumor cells) [nM] | IC50 (Panc3.27 tumor cells) [nM] | single agent activity in the in vitro combination study [1] | EC50 (cIAP1-BIR3) [nM] | EC50 (XIAP-BIR3) [nM] |
| --- | --- | --- | --- | --- | --- |
| CN[C@@H](C)C(=O)N[C@@H](CCCCNC(=O)c1ccc(-c2ccc(C(=O)NCCCC[C@H](NC(=O)[C@H](C)NC)C(=O)N3CCC[C@H]3c3cncc(C(=O)c4ccc(F)cc4)c3)cc2)cc1)C(=O)N1CCC[C@H]1c1cncc(C(=O)c2ccc(F)cc2)c1 [Example 1J, Biphenyl-4,4′-dicarboxylic acid bis-{[(S)-6-{(S)-2-[5-(4-fluorobenzoyl)-pyridin-3-yl]-pyrrolidin-1-yl}-5-((S)-2-methylamino-propionylamino)-6-oxo-hexyl]-amide}] | 0.026 to 5.94 | 0.0026 to 6.67 | neither Example 1J nor paclitaxel alone showed significant activity | 0.58 to 3.12 | 60.4 to 162 |
| CN[C@@H](C)C(=O)N[C@@H](Cc1ccc(NC(=O)CCCCC(=O)Nc2ccc(C[C@H](NC(=O)[C@H](C)NC)C(=O)N3CCC[C@H]3c3cncc(C(=O)c4ccc(F)cc4)c3)cc2)cc1)C(=O)N1CCC[C@H]1c1cncc(C(=O)c2ccc(F)cc2)c1 [Example 2C, Hexanedioic acid bis-({4-[(S)-3-{(S)-2-[5-(4-fluoro-benzoyl)-pyridin-3-yl]-pyrrolidin-1-yl}-2-((S)-2-methylamino-propionylamino)-3-oxo-propyl]-phenyl}-amide)] | 59.7 to 317 | 144 to 391 |  | 0.58 to 0.6 | 125 to 138 |
| CN[C@@H](C)C(=O)N[C@@H](Cc1ccc(NC(=O)c2cccc(C(=O)Nc3ccc(C[C@H](NC(=O)[C@H](C)NC)C(=O)N4CCC[C@H]4c4cncc(C(=O)c5ccc(F)cc5)c4)cc3)c2)cc1)C(=O)N1CCCC1c1cncc(C(=O)c2ccc(F)cc2)c1 (stereo partly drawn) [Example 2D, N,N′-Bis-{4-[(S)-3-{(S)-2-[5-(4-fluoro-benzoyl)-pyridin-3-yl]-pyrrolidin-1-yl}-2-((S)-2-methylamino-propionylamino)-3-oxo-propyl]-pheny}-isophthalamide] | 107 to 291 | 167 to 694 |  | 0.66 to 0.68 | 228 to 238 |
| CN[C@@H](C)C(=O)N[C@@H](Cc1ccc(NC(=O)CCCCCCCC(=O)Nc2ccc(C[C@H](NC(=O)[C@H](C)NC)C(=O)N3CCC[C@H]3c3cncc(C(=O)c4ccc(F)cc4)c3)cc2)cc1)C(=O)N1CCC[C@H]1c1cncc(C(=O)c2ccc(F)cc2)c1 [Example 2E, Nonanedioic acid bis-({4-[(S)-3-{(S)-2-[5-(4-fluoro-benzoyl)-pyridin-3-yl]-pyrrolidin-1-yl}-2-((S)-2-methylamino-propionylamino)-3-oxo-propyl]-phenyl}-amide)] | 17.1 to 23.5 | 37.6 to 95.7 |  | 0.73 to 0.81 | 99.4 to 104 |
| CN[C@@H](C)C(=O)N[C@@H](Cc1ccc(NC(=O)CCCC(=O)Nc2ccc(C[C@H](NC(=O)[C@H](C)NC)C(=O)N3CCC[C@H]3c3cncc(C(=O)c4ccc(F)cc4)c3)cc2)cc1)C(=O)N1CCC[C@H]1c1cncc(C(=O)c2ccc(F)cc2)c1 [Example 2F, Pentanedioic acid bis-({4-[(S)-3-{(S)-2-[5-(4-fluoro-benzoyl)-pyridin-3-yl]-pyrrolidin-1-yl}-2-((S)-2-methylamino-propionylamino)-3-oxo-propyl]-phenyl}-amide)] | ≥ 967 | 88.3 to 393 |  | 0.7 | 123 to 126 |
| CC(=O)O[C@H]1C(=O)[C@@]2(C)[C@H]([C@H](OC(=O)c3ccccc3)[C@]3(O)C[C@H](OC(=O)[C@H](O)[C@@H](NC(=O)c4ccccc4)c4ccccc4)C(C)=C1C3(C)C)[C@]1(OC(C)=O)CO[C@@H]1C[C@@H]2O [Paclitaxel, paclitaxel, reference compound] |  |  | neither Example 1J nor paclitaxel alone showed significant activity |  |  |
